Source: PMC11741115, “New Hydrogenated Phenanthrene Glycosides from the Edible Vegetable Elatostema tenuicaudatum W.T.Wang with DPP-IV Inhibitory and Hepatoprotective Activity” (Journal of Agricultural and Food Chemistry, 2025)

Key:
[1] = tested on: HepG2 cells; experiment: Hepatoprotective effect against acetaminophen-induced hepatotoxicity in HepG2 cells (MTT); format: cell-based, Human; settings: for viability at 50 µM: Homo sapiens, HepG2, 50 μM compound, pretreated 8 h, 6 mM APAP for 36 h, MTT, read-out: cell viability (cytoprotection against APAP)
Description: Human hepatocellular carcinoma HepG2 cells were obtained from the Bioresource Collection and Research Center (BCRC, Hsinchu, Taiwan). Cells culture was conducted with a complete medium consisting of DMEM (Dulbecco's Modified Eagle Medium, Gibco), 10% (v/v) fetal bovine serum (FBS) (Gibco), and 1% (v/v) antibiotic -antimycotic […] (Gibco, 15240062). Upon reaching at 80% confluence, cells were rinsed with PBS and detached using trypsin -EDTA (Gibco, 25200072) at 37 °C for 5 minutes. Subsequently, cells were seeded into specialized 96 -well plates (3 × 10^4/well, 100 µL/well) and incubated for 24 hours at 37 °C with 5% CO2. […]
control cells were used as a reference under the same conditions. The maximum absorbance value depended on the solvent used in the sample solution, and the percentage viability of cells was determined using the formula: […]. […]
3.9.2. Assess hepatoprotective effects of compounds […]
using an acetaminophen-induced hepatotoxicity HepG2 model. Cells were initially seeded in 96 -well plates at a density of 3 × 10^4 cells/well and then incubated under identical conditions with 5% CO 2 for 24 hours. Following this, cells were exposed to the test samples. After 8 hours, hepatotoxicity was induced using acetaminophen (Sigma Aldrich, A7085) at a concentration of 6 mM. The protective effects were assessed by determining cell viability using the MTT method 36 hours post - acetaminophen induc tion. Silymarin (at concentration of 50 μg/mL) was used as positive control. […]

[2] = target: T1, DPP-IV (Homo sapiens, UniProt P27487); experiment: DPP-IV inhibition activity (DPP-IV Activity Assay Kit, AMC fluorescence); format: biochemical; settings: for IC50: pure compounds; for DPP-IV inhibition (in words): summary
T1 construct: purchased BioVision K779-100
T1 sequence (P27487 whole entry, species assumed): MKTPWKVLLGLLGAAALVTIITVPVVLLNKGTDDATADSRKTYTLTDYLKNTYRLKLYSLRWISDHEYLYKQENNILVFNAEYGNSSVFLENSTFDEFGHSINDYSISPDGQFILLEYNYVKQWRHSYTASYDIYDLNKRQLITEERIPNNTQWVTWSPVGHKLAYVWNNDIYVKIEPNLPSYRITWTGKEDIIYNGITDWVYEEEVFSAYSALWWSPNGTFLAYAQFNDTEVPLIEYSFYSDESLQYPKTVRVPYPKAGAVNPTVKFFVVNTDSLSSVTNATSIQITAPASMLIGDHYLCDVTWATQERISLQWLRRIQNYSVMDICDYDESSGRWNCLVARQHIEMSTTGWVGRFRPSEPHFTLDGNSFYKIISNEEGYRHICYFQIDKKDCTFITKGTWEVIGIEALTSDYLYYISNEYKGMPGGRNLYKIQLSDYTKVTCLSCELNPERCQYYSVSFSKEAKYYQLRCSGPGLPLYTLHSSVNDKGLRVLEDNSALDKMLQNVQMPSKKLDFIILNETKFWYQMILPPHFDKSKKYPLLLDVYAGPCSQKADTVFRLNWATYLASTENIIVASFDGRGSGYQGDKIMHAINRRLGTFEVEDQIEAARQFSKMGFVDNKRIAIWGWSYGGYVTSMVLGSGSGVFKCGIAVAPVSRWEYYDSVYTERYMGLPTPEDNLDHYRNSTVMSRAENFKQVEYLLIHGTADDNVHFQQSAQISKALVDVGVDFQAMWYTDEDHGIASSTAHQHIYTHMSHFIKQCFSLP
Description: 2.7. DPP-IV inhibition activity
A commercially available DPP -IV Activity Assay Kit (K779 -100, BioVision) was employed to evaluate DPP-IV activity. The procedures were conducted according to the manufacturer’s instructions. DPP-IV enzymatically cleaves substrates, leading to the release o f the quenched fluorescent group AMC (7 -Amino-4-Methyl Coumarin). AMC detection was measured with a fluorescence reader at Ex/Em = 360/460 nm. […]

inhibition at 150 µM [2] [%]	inhibition at 400 µM [2] [%]	IC50 [2] [µM]	DPP-IV inhibition (in words) [2]	SMILES	hepatoprotective effect in acetaminophen-induced hepatotoxicity in HepG2 (in words) [1]	viability at 50 µM [1] [%]
≥ 50	> 50	142 ± 15.6	weak effects	COc1cc2c(cc1O[C@@H]1O[C@H](CO)[C@@H](O)[C@H](O)[C@H]1O)[C@@]1(O)C(=O)C[C@H](O)C[C@H]1CC2 [Compound 5, elatostemanoside E]		
	> 50			COc1cc2c(cc1O[C@@H]1O[C@H](CO)[C@@H](O)[C@H](O)[C@H]1O)[C@@]1(OC)C(=O)C=CC[C@@H]1CC2 [Compound 10, elatostemanoside J]		
≥ 50	> 50	71.9 ± 8.9	moderate inhibition	OC[C@H]1O[C@@H](Oc2cc3c(cc2O)CCc2cccc(O)c2-3)[C@H](O)[C@@H](O)[C@@H]1O [Compound 14, 7,4-dihydroxy-9,10-dihydrophenanthrene 6-O-β-D-glucopyranoside]	significant hepatoprotective effects	78.8
≥ 50	> 50	108 ± 19.6	weak effects	COc1cc2c(cc1O[C@@H]1O[C@H](CO)[C@@H](O)[C@H](O)[C@H]1O)[C@@]1(O)C(=O)[C@@H](O)[C@H](O)C[C@H]1CC2 [Compound 8, elatostemanoside H]		

Second part, the compound before the results:

SMILES	inhibition at 150 µM [2] [%]	inhibition at 400 µM [2] [%]	IC50 [2] [µM]	DPP-IV inhibition (in words) [2]	hepatoprotective effect in acetaminophen-induced hepatotoxicity in HepG2 (in words) [1]	viability at 50 µM [1] [%]
COc1cc2c(cc1O[C@@H]1O[C@H](CO)[C@@H](O)[C@H](O)[C@H]1O)[C@@]1(O)C(=O)C=CC[C@H]1CC2 [Compound 11, elatostemanoside K]					significant hepatoprotective effects	81.6
COc1cc2c(cc1O[C@@H]1O[C@H](CO)[C@@H](O)[C@H](O)[C@H]1O)[C@@]1(O)C(=O)C[C@H](O)C[C@@H]1CC2 [Compound 1, elatostemanoside A]		> 50			significant hepatoprotective effects	85.6
COc1cc2c(cc1OC1OC(CO)C(O)C(O)C1O)C1(O)C(=O)CC(C3=CCC4CCc5cc(OC)c(OC6OC(CO)C(O)C(O)C6O)cc5C4(O)C3=O)CC1CC2 (centres unmarked) [Compound 16, elatostemanoside P]		> 50				
COc1cc2c(cc1O[C@@H]1O[C@H](CO)[C@@H](O)[C@H](O)[C@H]1O)[C@@]1(O)C(=O)C=CC[C@@H]1CC2 [Compound 9, elatostemanoside I]					significant hepatoprotective effects	82.6
COc1cc2c(cc1O[C@@H]1O[C@H](CO[C@@H]3O[C@@H](C)[C@H](O)[C@@H](O)[C@H]3O)[C@@H](O)[C@H](O)[C@H]1O)-c1c(O)cccc1CC2 [Compound 15, elatostemanoside O]		> 50				
COc1cc2c(cc1O[C@@H]1O[C@H](CO)[C@@H](O)[C@H](O)[C@H]1O)[C@@]1(O)C(=O)C[C@@H](O)C[C@@H]1CC2 [Compound 2, elatostemanoside B]		> 50				
COc1cc2c(cc1O[C@@H]1O[C@H](CO)[C@@H](O)[C@H](O)[C@H]1O)[C@@]1(O)C(=O)C[C@@H](O)C[C@H]1CC2 [Compound 6, elatostemanoside F]	≥ 50	> 50	151 ± 11.8	weak effects		
